Test results taken from US9926529B2, “Derivation of neural stem cells and dopaminergic neurons from human pluripotent stem cells” (International Stem Cell Corporation, priority 2012, dated 2018).
Like-named read-outs stand apart in the source and are kept apart here.

How the values were obtained:
hPSC-NSCs = test: RT-PCR expression of dopamine neuron genes in hPSC-NSCs treated with small molecule hits; format: cell-based, human; conditions: Homo sapiens, Neuron, 336 h, hPSC-NSCs primed 7 days with Purmorphamine and FGF8, small molecule 2.5 μM for two weeks
Summary of the method: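 hPSC-NSCs pre-patterned 7 days with Purmorphamine (2 μM) plus FGF8 (100 ng/mL) in NB medium, then treated with compounds at 2.5 μM final for two weeks. Total RNA reverse-transcribed; SYBR Green qPCR for dopaminergic/neuronal markers, relative quantification against a standard curve, normalized to PPIG; mean±s.e.m.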

hPSC-derived DA neurons = test: Microelectrode array (MEA) recordings of GS-treated neurons; format: cell-based, human; conditions: day 95 of differentiation, 2.5 μM guggulsterone
Procedure: Extracellular voltage recordings from cultured hPSC-derived DA neurons were made on day 95 of differentiation in NB medium [NeuroBasal medium, 1× GlutaMAX, 1× N2/B27 Supplement (Invitrogen)] supplemented with 2.5 μM guggulsterone at 37° C. using a Muse microelectrode array (MEA) system (Axion Biosystems). The surface of the MEA dishes contained an 8×8 grid (64 electrodes total) of 30 μm diameter round extracellular electrodes composed of nanoporous platinum, with 200 μm inter-polar spacing.
MEA dishes were sterilized by rinsing 3 times in sterile deionized water, once in 70% ethanol and once in 100% ethanol. Dishes were then capped and inverted in a covered petri dish, and baked at 50° C. for 4-5 hr. A polyethyleneimine (PEI) base coating was deposited by adding […] of filtered (0.22 μm filter) 0.1% PEI in sodium borate buffer (15 mM; pH 8.4) to each dish and incubating at room temperature for 1 hr. Immediately following aspiration of the PEI solution, dishes were washed 4× with 1 ml deionized water, and air-dried overnight in a tissue culture hood. […]
Voltage data were sampled simultaneously on all electrodes at 12.5 kHz with a hardware filter bandwidth of 200-5000 Hz, and saved to computer with AxIS software (Axion Biosystems). […] For spike raster plots and inter-spike interval histograms, time-stamps of detected spikes were exported to Neuroexplorer (NEX Technologies). […]

Structure (SMILES): C/C=C1\C(=O)C[C@H]2[C@@H]3CCC4=CC(=O)CC[C@]4(C)[C@H]3CC[C@]12C [Guggulsterone]
- fold induction at 2.5 µM (hPSC-NSCs; read-out: DDC (AADC) expression by RT-PCR): 9.82
- fold induction at 2.5 µM (hPSC-NSCs; read-out: EN1 expression by RT-PCR): 10
- fold induction at 2.5 µM (hPSC-NSCs; read-out: KCNJ6 expression by RT-PCR): 0.01
- fold induction at 2.5 µM (hPSC-NSCs; read-out: LMX1B expression by RT-PCR): 6.45
- fold induction at 2.5 µM (hPSC-NSCs; read-out: MAP2 expression by RT-PCR): 9.05
- fold induction at 2.5 µM (hPSC-NSCs; read-out: NR4A2 (NURR1) expression by RT-PCR): 0.53
- fold induction at 2.5 µM (hPSC-NSCs; read-out: PITX3 expression by RT-PCR): 0.48
- fold induction at 2.5 µM (hPSC-NSCs; read-out: Pax2 expression by RT-PCR): 0.03
- fold induction at 2.5 µM (hPSC-NSCs; read-out: SLC6A3 (DAT) expression by RT-PCR): 1.03
- fold induction at 2.5 µM (hPSC-NSCs; read-out: TH1 expression by RT-PCR): 10.6
- fold induction at 2.5 µM (hPSC-NSCs; read-out: Tubb3 expression by RT-PCR): 6.83
- fraction of the 64 total MEA electrodes showing moderate activity (>5 spikes/min) (hPSC-derived DA neurons): Approximately one third
